Assays:
Type in all cases: in vivo
[1] = tested on: upland rice (Oryza sp., var. Tebonnet, RICE); assay: Post-emerge test, crop safety; conditions: post-emerge, crop damage rating 0-100 at 14 days after application
Method in brief: (§1)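 Fourteen days after spraying, crop and weed injury was graded visually from 0, no effect, to 100, every plant dead. Test substances were dissolved in acetone and applied at 15–1000 g ai/ha with a flat-fan nozzle. Application was either pre-emergence, one day after sowing, or post-emergence at the 2–3 leaf stage.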

[2] = tested on: field corn (Zea mays L., var. Dekalb 535, CORN); assay: Post-emerge test, crop safety; conditions: post-emerge, crop damage rating 0-100 at 14 days after application
Method in brief: as §1

[3] = tested on: redroot pigweed (Amaranthus retroflexus, AMARE); assay: Pre-emerge test, greenhouse herbicide activity screening; conditions: pre-emerge, phytotoxicity rating 0-100 at 14 days after application
Method in brief: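 Plants grown in 10 cm pots of sandy loam mix received acetone-dissolved compounds through a moving flat-fan nozzle. Doses ranged from 15 to 1000 g ai/ha. Pre-emerge pots were seeded one day earlier, post-emerge pots 8–21 days earlier. Fourteen days on, each pot was graded 0–100 for damage.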

[4] = tested on: ivyleaf morningglory (Ipomoea hederacea, IPOHE); assay: as above; conditions: pre-emerge, phytotoxicity rating 0-100 at 14 days after application
Method in brief: as §1

[5] = tested on: barnyardgrass (Echinochloa crus-galli, ECHCG); assay: as above; conditions: pre-emerge, phytotoxicity rating 0-100 at 14 days after application
Method in brief: as §1

[6] = tested on: johnsongrass (Sorghum halepense, SORHA); assay: as above; conditions: pre-emerge, phytotoxicity rating 0-100 at 14 days after application
Method in brief: as §1

[7] = tested on: green foxtail (Setaria viridis, SETVI); assay: as above; conditions: pre-emerge, phytotoxicity rating 0-100 at 14 days after application
Method in brief: as §1

[8] = tested on: large crabgrass (Digitaria sanguinalis, DIGSA); assay: as above; conditions: pre-emerge, phytotoxicity rating 0-100 at 14 days after application
Method in brief: as §1

[9] = tested on: sicklepod (Cassia obtusifolia, CASOB); assay: as above; conditions: pre-emerge, phytotoxicity rating 0-100 at 14 days after application
Method in brief: as §1

[10] = tested on: lambsquarters (Chenopodium album, CHEAL); assay: as above; conditions: pre-emerge, phytotoxicity rating 0-100 at 14 days after application
Method in brief: as §1

[11] = tested on: velvetleaf (Abutilon theophrasti, ABUTH); assay: as above; conditions: pre-emerge, phytotoxicity rating 0-100 at 14 days after application
Method in brief: as §1

[12] = tested on: ivyleaf morningglory (Ipomoea hederacea, IPOHE); assay: Post-emerge test, greenhouse herbicide activity screening; conditions: post-emerge, phytotoxicity rating 0-100 at 14 days after application
Method in brief: (§2)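 Sandy loam pots; pre-emerge: sown 1 d pre-spray, surface-watered after, then bottom-watered. Post-emerge: sown 8–21 d before, 2–3 leaf stage, + 0.25% v/v NIS, bottom-watered. Acetone, 187 l/ha track spray, 15–1000 g ai/ha. 0–100 injury score, day 14.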

[13] = tested on: barnyardgrass (Echinochloa crus-galli, ECHCG); assay: as above; conditions: post-emerge, phytotoxicity rating 0-100 at 14 days after application
Method in brief: as §2

[14] = tested on: johnsongrass (Sorghum halepense, SORHA); assay: as above; conditions: post-emerge, phytotoxicity rating 0-100 at 14 days after application
Method in brief: as §2

[15] = tested on: green foxtail (Setaria viridis, SETVI); assay: as above; conditions: post-emerge, phytotoxicity rating 0-100 at 14 days after application
Method in brief: as §2

[16] = tested on: redroot pigweed (Amaranthus retroflexus, AMARE); assay: as above; conditions: post-emerge, phytotoxicity rating 0-100 at 14 days after application
Method in brief: as §2

[17] = tested on: large crabgrass (Digitaria sanguinalis, DIGSA); assay: as above; conditions: post-emerge, phytotoxicity rating 0-100 at 14 days after application
Method in brief: as §2

[18] = tested on: sicklepod (Cassia obtusifolia, CASOB); assay: as above; conditions: post-emerge, phytotoxicity rating 0-100 at 14 days after application
Method in brief: as §2

[19] = tested on: lambsquarters (Chenopodium album, CHEAL); assay: as above; conditions: post-emerge, phytotoxicity rating 0-100 at 14 days after application
Method in brief: as §2

[20] = tested on: velvetleaf (Abutilon theophrasti, ABUTH); assay: as above; conditions: post-emerge, phytotoxicity rating 0-100 at 14 days after application
Method in brief: as §2

[21] = tested on: upland rice (Oryza sp., var. Tebonnet, RICE); assay: Pre-emerge test, crop safety; conditions: crop damage, pre-emerge, phytotoxicity rating 0-100 at 14 days after application
Method in brief: (§3)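 Compounds in acetone were track-sprayed at 15-1000 g ai/ha (187 l/ha) on sandy loam pots: pre-emerge one day after seeding, post-emerge at 2-3 leaf stage with 0.25% v/v non-ionic surfactant. Phytotoxicity was rated 14 days later on a 0 (no damage) to 100 (complete death) scale.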

[22] = tested on: field corn (Zea mays L., var. Dekalb 535, CORN); assay: Pre-emerge test, crop safety; conditions: crop damage, pre-emerge, phytotoxicity rating 0-100 at 14 days after application
Method in brief: as §3

Cc1c(Cl)cc(F)c(-n2c(=O)cc(C(F)(F)F)n(C)c2=O)c1NC(=O)OCc1ccc(Cl)cc1Cl [4-62]
30: Post-emerge Herbicidal Activity RICE ([1]; 63 g ai/ha) | Post-emerge Herbicidal Activity RICE ([1]; 250 g ai/ha) | Post-emerge Herbicidal Activity CORN ([2]; 63 g ai/ha) | Pre-emerge Herbicidal Activity IPOHE ([4]; rate 250 g ai/ha) | Post-emerge Herbicidal Activity SORHA ([14]; 63 g ai/ha) | Post-emerge Herbicidal Activity SORHA ([14]; 250 g ai/ha)
100: Pre-emerge Herbicidal Activity AMARE ([3]; rate 63 g ai/ha) | Pre-emerge Herbicidal Activity AMARE ([3]; rate 250 g ai/ha) | Pre-emerge Herbicidal Activity SETVI ([7]; rate 250 g ai/ha) | Pre-emerge Herbicidal Activity CASOB ([9]; rate 250 g ai/ha) | Pre-emerge Herbicidal Activity CHEAL ([10]; rate 63 g ai/ha) | Pre-emerge Herbicidal Activity CHEAL ([10]; rate 250 g ai/ha) | Pre-emerge Herbicidal Activity ABUTH ([11]; rate 63 g ai/ha) | Pre-emerge Herbicidal Activity ABUTH ([11]; rate 250 g ai/ha) | Post-emerge Herbicidal Activity IPOHE ([12]; 63 g ai/ha) | Post-emerge Herbicidal Activity IPOHE ([12]; 250 g ai/ha) | Post-emerge Herbicidal Activity AMARE ([16]; 63 g ai/ha) | Post-emerge Herbicidal Activity AMARE ([16]; 250 g ai/ha) | Post-emerge Herbicidal Activity CASOB ([18]; 250 g ai/ha) | Post-emerge Herbicidal Activity CHEAL ([19]; 63 g ai/ha) | Post-emerge Herbicidal Activity CHEAL ([19]; 250 g ai/ha) | Post-emerge Herbicidal Activity ABUTH ([20]; 63 g ai/ha) | Post-emerge Herbicidal Activity ABUTH ([20]; 250 g ai/ha)
10: Pre-emerge Herbicidal Activity ECHCG ([5]; rate 63 g ai/ha) | Pre-emerge Herbicidal Activity SORHA ([6]; rate 63 g ai/ha) | Post-emerge Herbicidal Activity DIGSA ([17]; 63 g ai/ha) | Pre-emerge Herbicidal Activity RICE ([21]; rate 63 g ai/ha) | Pre-emerge Herbicidal Activity CORN ([22]; rate 250 g ai/ha)
60: Pre-emerge Herbicidal Activity IPOHE ([4]; rate 63 g ai/ha) | Pre-emerge Herbicidal Activity ECHCG ([5]; rate 250 g ai/ha) | Post-emerge Herbicidal Activity SETVI ([15]; 63 g ai/ha)
40: Post-emerge Herbicidal Activity ECHCG ([13]; 250 g ai/ha)
50: Pre-emerge Herbicidal Activity SORHA ([6]; rate 250 g ai/ha) | Pre-emerge Herbicidal Activity DIGSA ([8]; rate 63 g ai/ha) | Pre-emerge Herbicidal Activity CASOB ([9]; rate 63 g ai/ha) | Post-emerge Herbicidal Activity DIGSA ([17]; 250 g ai/ha)
45: Post-emerge Herbicidal Activity CORN ([2]; 250 g ai/ha)
90: Pre-emerge Herbicidal Activity DIGSA ([8]; rate 250 g ai/ha) | Post-emerge Herbicidal Activity CASOB ([18]; 63 g ai/ha)
0: Pre-emerge Herbicidal Activity CORN ([22]; rate 63 g ai/ha)
70: Pre-emerge Herbicidal Activity RICE ([21]; rate 250 g ai/ha)
80: Pre-emerge Herbicidal Activity SETVI ([7]; rate 63 g ai/ha) | Post-emerge Herbicidal Activity SETVI ([15]; 250 g ai/ha)
20: Post-emerge Herbicidal Activity ECHCG ([13]; 63 g ai/ha)
